Measurements reported in article PMC3913050 (Bioorganic & medicinal chemistry, 2013).

Columns and labels:
[1] = molecular target: serotonin transporter (SERT) (Rattus norvegicus, UniProt P31652); assay: Inhibition of [3H]5-HT uptake by SERT in rat cerebral cortex; type: biochemical
[2] = molecular target: norepinephrine transporter (NET) (Rattus norvegicus, UniProt Q63380); assay: Inhibition of [3H]DA uptake by NET in rat cerebral cortex
[3] = molecular target: dopamine transporter (DAT) (Rattus norvegicus, UniProt P23977); assay: Inhibition of [3H]DA uptake by DAT in rat striatum; type: biochemical
dopamine transporter (DAT), sequence (P23977 whole entry): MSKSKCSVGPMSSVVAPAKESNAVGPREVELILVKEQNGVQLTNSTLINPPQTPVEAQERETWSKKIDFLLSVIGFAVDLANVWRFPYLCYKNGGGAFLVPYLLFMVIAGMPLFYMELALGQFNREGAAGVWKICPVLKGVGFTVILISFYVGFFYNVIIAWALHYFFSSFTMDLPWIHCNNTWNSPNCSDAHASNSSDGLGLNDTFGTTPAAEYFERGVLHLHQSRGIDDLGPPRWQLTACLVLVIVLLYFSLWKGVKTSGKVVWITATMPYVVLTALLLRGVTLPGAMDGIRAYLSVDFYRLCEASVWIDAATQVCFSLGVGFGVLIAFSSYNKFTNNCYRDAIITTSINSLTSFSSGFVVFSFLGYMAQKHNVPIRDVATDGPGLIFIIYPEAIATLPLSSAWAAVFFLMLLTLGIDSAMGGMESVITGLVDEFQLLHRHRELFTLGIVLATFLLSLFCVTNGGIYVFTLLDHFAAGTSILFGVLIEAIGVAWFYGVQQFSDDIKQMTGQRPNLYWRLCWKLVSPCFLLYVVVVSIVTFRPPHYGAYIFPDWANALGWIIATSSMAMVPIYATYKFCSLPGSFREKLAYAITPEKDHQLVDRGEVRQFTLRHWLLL

serotonin transporter (SERT), sequence (P31652 whole entry): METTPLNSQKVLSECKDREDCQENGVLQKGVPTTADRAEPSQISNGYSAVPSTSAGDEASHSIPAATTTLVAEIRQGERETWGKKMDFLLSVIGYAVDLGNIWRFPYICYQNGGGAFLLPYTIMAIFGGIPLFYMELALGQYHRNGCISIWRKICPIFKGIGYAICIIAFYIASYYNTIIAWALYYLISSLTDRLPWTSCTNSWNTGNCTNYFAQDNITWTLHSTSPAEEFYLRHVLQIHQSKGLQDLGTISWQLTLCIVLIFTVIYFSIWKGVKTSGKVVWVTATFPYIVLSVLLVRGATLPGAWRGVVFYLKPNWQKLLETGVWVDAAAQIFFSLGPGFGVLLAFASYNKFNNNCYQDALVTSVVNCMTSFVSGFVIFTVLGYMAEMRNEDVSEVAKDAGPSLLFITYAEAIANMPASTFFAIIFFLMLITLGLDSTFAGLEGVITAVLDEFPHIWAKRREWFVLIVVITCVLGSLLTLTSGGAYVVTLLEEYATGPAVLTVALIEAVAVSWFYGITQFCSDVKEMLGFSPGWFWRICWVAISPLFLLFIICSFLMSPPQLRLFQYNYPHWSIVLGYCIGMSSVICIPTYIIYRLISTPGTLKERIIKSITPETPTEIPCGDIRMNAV
norepinephrine transporter (NET), sequence (Q63380 1-617): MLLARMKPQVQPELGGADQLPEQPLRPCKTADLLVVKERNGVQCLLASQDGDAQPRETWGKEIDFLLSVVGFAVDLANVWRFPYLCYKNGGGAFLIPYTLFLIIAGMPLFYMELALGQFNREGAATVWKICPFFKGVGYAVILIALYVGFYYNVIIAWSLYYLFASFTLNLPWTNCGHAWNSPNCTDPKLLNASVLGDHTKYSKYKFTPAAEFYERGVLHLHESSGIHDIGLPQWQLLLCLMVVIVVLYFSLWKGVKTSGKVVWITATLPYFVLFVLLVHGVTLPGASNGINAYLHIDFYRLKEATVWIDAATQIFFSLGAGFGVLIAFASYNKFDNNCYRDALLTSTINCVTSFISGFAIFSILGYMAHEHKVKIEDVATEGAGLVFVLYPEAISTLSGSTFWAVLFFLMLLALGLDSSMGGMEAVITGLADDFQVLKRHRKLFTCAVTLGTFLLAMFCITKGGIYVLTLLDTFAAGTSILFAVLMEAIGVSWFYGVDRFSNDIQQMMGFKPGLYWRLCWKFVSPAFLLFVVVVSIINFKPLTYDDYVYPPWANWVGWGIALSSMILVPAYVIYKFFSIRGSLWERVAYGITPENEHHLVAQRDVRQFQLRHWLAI

## 3-((((3S,5S)-5-benzhydryltetrahydrofuran-3-yl)amino)methyl)phenol [compound 40]
[1]; read-out: Ki uptake inhibition, SERT, text value in µM
  Ki: 1.15 µM
[2]; read-out: Ki uptake inhibition, NET, text value in µM
  Ki: 1.51 µM
[3]; read-out: Ki uptake inhibition, DAT, text value in µM
  Ki: 0.94 µM

## c1ccc(CCN[C@@H]2CO[C@H](C(c3ccccc3)c3ccccc3)C2)cc1 [compound 44, (3S,5S)-5-benzhydryl-N-phenethyltetrahydrofuran-3-amine]
[1]; uptake inhibition
  activity against SERT (in words): inactive
[2]; uptake inhibition
  activity against NET (in words): weak activity
[3]; uptake inhibition
  activity against DAT (in words): weak activity
